14 molecules from patent publication US20150239831A1, “INHIBITORS OF CENTRAL NERVOUS SYSTEM VASOACTIVE INHIBITORY PEPTIDE RECEPTOR 2” (The Trustees Of Columbia University In The City Of New York, priority 2012, published 2015) can be followed below.

Type in all cases: cell-based
Common to all, as to parameters: expressed in transfected cells; host or cells: HEK293 cells transfected with VIPR2 in pCDNA3.1 (as described)

Assay [1] deals with T1, VIPR2 (Homo sapiens, UniProt P41587).
T1 sequence (P41587 24-438): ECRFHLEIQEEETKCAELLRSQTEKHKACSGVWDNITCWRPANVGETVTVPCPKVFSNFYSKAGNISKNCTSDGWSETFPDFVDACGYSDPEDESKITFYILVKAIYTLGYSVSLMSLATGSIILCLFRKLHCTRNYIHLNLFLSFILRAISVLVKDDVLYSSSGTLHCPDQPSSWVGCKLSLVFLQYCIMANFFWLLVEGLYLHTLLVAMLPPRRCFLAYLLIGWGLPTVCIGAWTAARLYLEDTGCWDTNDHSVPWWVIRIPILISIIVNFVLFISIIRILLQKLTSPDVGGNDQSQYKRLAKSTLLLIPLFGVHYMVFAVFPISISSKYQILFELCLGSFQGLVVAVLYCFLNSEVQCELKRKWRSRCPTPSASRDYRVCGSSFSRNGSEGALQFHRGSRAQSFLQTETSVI
As to the kind of experiment: % Activity: inhibition of VIP-induced cAMP elevation and β-arrestin recruitment (Table 2). From the text:
(§1) In a further non-limiting embodiment of the invention, the ability of a compound to inhibit VIPR2 and thereby […] a VIP-induced increase in cAMP may be measured using a Homogeneous Time-Resolved Fluorescence (“HTRF® assay; Cisbio Bioassays) as used in Chu et al., 2010, Molecular Pharmacol. 7795-101. In a method as used in Chu et al., 2010, Molecular Pharmacol. 7795-101, HEK293 cells may be transfected with nucleic acid encoding VIPR2, for example human VIPR2 (“hVIPR2”), for example comprised in a vector such as pCDNA3.1 vector. Successful transformants may then be selected, for example using 800 μg/ml G418. Clonal stable cell lines may then be generated by limited dilution to single cells and then may be clonally expanded and tested for VIP -dependent cAMP response. For the cAMP assay, about 3000-15,000 cells (in about 4-25 μl) may be placed in a well of an assay plate. The next day, inhibitor or test inhibitor and VIP may be added in a volume about 1-2 percent of the initial volume. Assay plates may then be returned to a cell incubator for 30 min before addition of a one-half volume of cAMP conjugate and, relative to the amount of cAMP conjugate, an equal volume of anti-cAMP conjugate (Cisbio). After at least 1 h of room-temperature incubation, HTRF signal may be read, for example using Viewlux or EnVision (PerkinElmer Life and Analytical Sciences, Waltham, Mass.). The ratio of […] at 665 nm and 620 nm times 10,000 may be calculated and plotted.
(§2) In a further non-limiting embodiment of the invention, the ability of a compound to inhibit VIPR2 GPCR activity may be tested, for example, using the PathHunter® eXpress β-Arrestin GPCR system (Discoverx Corporation, Fremont, Calif., US), as used by Chu et al., 2010, Molecular Pharmacol. 7795-101. In this assay, β-Arrestin is fused to the “Enzyme Acceptor” (“EA”), an N-terminal deletion mutant of β-gal, and the GPCR of interest is fused to a smaller (42 amino acids), weakly complementing portion of the β-gal enzyme (termed “ProLink™”). In cells that stably express these fusion proteins, the interaction of β-Arrestin and the GPCR following ligand stimulation forces the complementation of the two β-gal fragments resulting in the formation of a functional enzyme that converts substrate to detectable signal. In the absence of an interaction between the GPCR and β-Arrestin, the enzyme activity is low due to the low affinity of the two enzyme fragments. For example, a nucleic acid encoding VIPR2, for example hVIPR2, may be cloned into the ProLink vector (DiscoveRx) for GPCR-ProLink fusion protein production. Parental HEK293 cells that stably express β-arrestin2-β-gal-EA fusion protein (DiscoveRx) may be detached and transiently transfected with the VIPR2-containing vector using Fugene6 transfection reagent in suspension mode. Transfected cells in assay medium may be plated into test plates, for example at 15,000 cells/25 μl/well. After overnight incubation, 500 nl of an inhibitor or test inhibitor may be introduced into the test plate followed by 2 h incubation at 37° C., 5% CO2. Flash detection reagents may be added at 12.5 μl/well. After 5 min to 1 h of room-temperature incubation, the cell plates may be read on CLIPR (PerkinElmer Life and Analytical Sciences)or Acquest (Molecular Devices, Sunnyvale, Calif.) for luminescence signal.
(§3) A series of compounds were prepared using a synthetic method analogous to that set forth in Scheme 1, above, and then tested for their ability to inhibit VIP-induced cAMP elevation and β-arrestin recruitment, as described herein (Discoverx Corporation, Fremont, Calif., US). Compound activities were also tested in a BRET-based assay, as described herein. The results are shown below in Tables 1-4, above.
(In general: Activated receptors often draw arrestin, which recruitment assays turn into a signal.)

For assay [2], the target named is T1, VIPR2. As to the kind of experiment: Inhibition of VIP-induced cAMP elevation (% Activity cAMP).
Excerpt: as §1
(§4) A series of compounds were prepared using a synthetic method analogous to that set forth in Scheme 1, above, and then tested for their ability to inhibit VIP-induced cAMP elevation and β-arrestin recruitment.
as §3

Assay [3] has as its target T1, VIPR2. As to the kind of experiment: Inhibition of VIP-induced β-arrestin recruitment (% Activity Arrestin).
Excerpt: as §2, §4, §3

For orientation: inhibition means the change of the read-out against control, counted positive when it falls. Take `O=C(NC[C@@H](O)C[C@@H](Cc1ccccc1)C(=O)N[C@H]1c2ccccc2C[C@H]1O)c1cccnc1` [Compound A16]: the “% Activity” value on VIPR2 [1] is listed as 5.05%. At VIPR2 [2] (Batch 1), the inhibition at 0.5 µM is 15.2%, the inhibition at 1 µM turned out to be 13.5% and the inhibition at 5 µM amounted to 16.4%. For the same molecule, at VIPR2 [3] (Batch 1), the inhibition at 0.5 µM is -6.8%, the inhibition at 1 µM was -5.7% and the inhibition at 5 µM was -6.3%.

For `O=C(NC[C@@H](O)C[C@@H](Cc1ccccc1)C(=O)N[C@H]1c2ccccc2C[C@H]1O)c1ccccn1` [Compound A17], the “% Activity” value at VIPR2 [1] was found to be 12.9%. Further, on VIPR2 [2] (Batch 1), the inhibition at 0.5 µM was found to be 14.9%, the inhibition at 1 µM was determined as 17.7% and the inhibition at 5 µM is 20.3%. On VIPR2 [3] (Batch 1), the inhibition at 0.5 µM came out at 6.1%, the inhibition at 1 µM worked out at 32.7% and the inhibition at 5 µM came to 5.5%.

Regarding `O=C(NC[C@@H](O)C[C@@H](Cc1ccccc1)C(=O)N[C@H]1c2ccccc2C[C@H]1O)c1ccncc1` [Compound A18], the “% Activity” value at VIPR2 [1] came out at 6.1%. At VIPR2 [2] (Batch 1), the inhibition at 0.5 µM was determined as 14.2%, the inhibition at 1 µM came to 19.2% and the inhibition at 5 µM is 21%. At VIPR2 [3] (Batch 1), the inhibition at 0.5 µM was -39.7%, the inhibition at 1 µM was 10.9% and the inhibition at 5 µM is -8.8%.

Regarding `O=C(Cc1cccc(Cl)c1)NC[C@@H](O)C[C@@H](Cc1ccccc1)C(=O)N[C@H]1c2ccccc2C[C@H]1O` [Compound A19], the “% Activity” value on VIPR2 [1] was 21.85%. On VIPR2 [2] (Batch 1), the inhibition at 0.5 µM turned out to be 14.4%, the inhibition at 1 µM was 16% and the inhibition at 5 µM is 26.5%. For the same molecule, at VIPR2 [3] (Batch 1), the inhibition at 0.5 µM worked out at 11.3%, the inhibition at 1 µM is 20.1% and the inhibition at 5 µM is 17.2%.

As to `O=C(CCN1C(=O)C=CC1=O)NC[C@@H](O)C[C@@H](Cc1ccccc1)C(=O)N[C@H]1c2ccccc2C[C@H]1O` [Compound A21], the “% Activity” value on VIPR2 [1] is listed as 7.75%. Moreover, on VIPR2 [2] (Batch 1), the inhibition at 0.5 µM stood at 15.5%, the inhibition at 1 µM amounted to 19% and the inhibition at 5 µM was determined as 18.6%. On VIPR2 [3] (Batch 1), the inhibition at 0.5 µM was 9.9%, the inhibition at 1 µM worked out at 15.2% and the inhibition at 5 µM was -3.1%.

As to `O=C(CCCCl)NC[C@@H](O)C[C@@H](Cc1ccccc1)C(=O)N[C@H]1c2ccccc2C[C@H]1O` [Compound A22], the “% Activity” value on VIPR2 [1] was determined as 18.5%. Further, at VIPR2 [2] (Batch 1), the inhibition at 0.5 µM came out at 16.4%, the inhibition at 1 µM was 18.2% and the inhibition at 5 µM is 15.9%. Further, on VIPR2 [3] (Batch 1), the inhibition at 0.5 µM amounted to 19.2%, the inhibition at 1 µM stood at 24.3% and the inhibition at 5 µM amounted to 21.1%.

In the case of `C#CCCCC(=O)NC[C@@H](O)C[C@@H](Cc1ccccc1)C(=O)N[C@H]1c2ccccc2C[C@H]1O` [Compound A23], the “% Activity” value on VIPR2 [1] worked out at 26.2%. Besides, on VIPR2 [2] (Batch 1), the inhibition at 0.5 µM worked out at 20.8%, the inhibition at 1 µM is 20.2% and the inhibition at 5 µM came out at 26.6%. On VIPR2 [3] (Batch 1), the inhibition at 0.5 µM was 45.8%, the inhibition at 1 µM came to 16.1% and the inhibition at 5 µM came to 25.8%.

In the case of `C=Cc1ccc(C(=O)NC[C@@H](O)C[C@@H](Cc2ccccc2)C(=O)N[C@H]2c3ccccc3C[C@H]2O)cc1` [Compound A24], on VIPR2 [1], the “% Activity” value stood at 12.8%. Besides, on VIPR2 [2] (Batch 1), the inhibition at 0.5 µM worked out at 16.1%, the inhibition at 1 µM was found to be 16.5% and the inhibition at 5 µM was 23.8%. Also, on VIPR2 [3] (Batch 1), the inhibition at 0.5 µM turned out to be 2.3%, the inhibition at 1 µM amounted to 47.5% and the inhibition at 5 µM was 1.8%.

Consider `O=C(NC[C@@H](O)C[C@@H](Cc1ccccc1)C(=O)N[C@H]1c2ccccc2C[C@H]1O)c1ccc([N+](=O)[O-])cc1` [Compound A25], for which the “% Activity” value at VIPR2 [1] was found to be 18.75%. In addition, on VIPR2 [2] (Batch 1), the inhibition at 0.5 µM was found to be 14%, the inhibition at 1 µM came to 22.3% and the inhibition at 5 µM is 21.1%. Besides, on VIPR2 [3] (Batch 1), the inhibition at 0.5 µM was -0.5%, the inhibition at 1 µM turned out to be 18.6% and the inhibition at 5 µM is 16.4%.

Consider `CC(C)(C)c1ccc(C(=O)NC[C@@H](O)C[C@@H](Cc2ccccc2)C(=O)N[C@H]2c3ccccc3C[C@H]2O)cc1` [Compound A26], for which, on VIPR2 [1], the “% Activity” value is listed as 15.5%. In addition, at VIPR2 [2] (Batch 1), the inhibition at 0.5 µM was 10.7%, the inhibition at 1 µM amounted to 16% and the inhibition at 5 µM worked out at 23.2%. Besides, at VIPR2 [3] (Batch 1), the inhibition at 0.5 µM is 16.2%, the inhibition at 1 µM stood at 11.3% and the inhibition at 5 µM was determined as 7.8%.

For the molecule `NC[C@@H](O)C[C@@H](Cc1ccccc1)C(=O)N[C@H]1c2ccccc2C[C@H]1O` [Compound A28], on VIPR2 [1], the “% Activity” value was 17.45%. Also, at VIPR2 [2] (Batch 1), the inhibition at 0.5 µM is 11.8%, the inhibition at 1 µM is 15.9% and the inhibition at 5 µM turned out to be 15.2%. Further, at VIPR2 [3] (Batch 1), the inhibition at 0.5 µM worked out at 3.7%, the inhibition at 1 µM is 1.4% and the inhibition at 5 µM came out at 19.7%.

Consider `O=C(NC1CCCC1)[C@H](Cc1ccccc1)C[C@H](O)CNS(=O)(=O)c1ccc([N+](=O)[O-])cc1` [Compound B1A], for which the “% Activity” value at VIPR2 [1] was determined as 6.95%. Moreover, on VIPR2 [2] (Batch 2), the inhibition at 0.5 µM is -2.1%, the inhibition at 1 µM is -4.9% and the inhibition at 5 µM turned out to be 4.7%. Moreover, at VIPR2 [3] (Batch 2), the inhibition at 0.5 µM came out at 17.4%, the inhibition at 1 µM turned out to be 17.1% and the inhibition at 5 µM is 9.2%.

Take `O=C(NC1CCCC1)[C@@H](Cc1ccccc1)C[C@H](O)CNS(=O)(=O)c1ccc([N+](=O)[O-])cc1` [Compound B1B]: the “% Activity” value on VIPR2 [1] is listed as 0.5%. In addition, on VIPR2 [2] (Batch 2), the inhibition at 0.5 µM was -7.5%, the inhibition at 1 µM was -2.5% and the inhibition at 5 µM is -0.3%. In addition, at VIPR2 [3] (Batch 2), the inhibition at 0.5 µM was -5.7%, the inhibition at 1 µM is -6.1% and the inhibition at 5 µM worked out at 1.3%.

Take `O=C(NC1Cc2ccccc2C1)[C@H](Cc1ccccc1)C[C@H](O)CNS(=O)(=O)c1ccc([N+](=O)[O-])cc1` [Compound B2A]: the “% Activity” value at VIPR2 [1] worked out at 12.9%. At VIPR2 [2] (Batch 2), the inhibition at 0.5 µM came out at 5.7%, the inhibition at 1 µM is 7.5% and the inhibition at 5 µM worked out at 16%. Further, at VIPR2 [3] (Batch 2), the inhibition at 0.5 µM is -2.7%, the inhibition at 1 µM came to 8.1% and the inhibition at 5 µM turned out to be 9.8%.
